# Assay results: article PMC9133015 (Nature Communications, 2022)
# “And” between values parts separate entries of the source, which are not always exact repeats. Equal entries are not always repeated. “Also recorded” adds a separate entry of the source.
# Experiments:
# [1] = target: T1, DYRK3 (Homo sapiens, UniProt O43781); experiment: DYRKs kinase activity assay (33P-ATP, DYRKtide substrate): DYRK3; assay type: biochemical
# T1 construct: purchased Reaction Biology Corporation (assay service)
# T1 sequence (O43781 1-588): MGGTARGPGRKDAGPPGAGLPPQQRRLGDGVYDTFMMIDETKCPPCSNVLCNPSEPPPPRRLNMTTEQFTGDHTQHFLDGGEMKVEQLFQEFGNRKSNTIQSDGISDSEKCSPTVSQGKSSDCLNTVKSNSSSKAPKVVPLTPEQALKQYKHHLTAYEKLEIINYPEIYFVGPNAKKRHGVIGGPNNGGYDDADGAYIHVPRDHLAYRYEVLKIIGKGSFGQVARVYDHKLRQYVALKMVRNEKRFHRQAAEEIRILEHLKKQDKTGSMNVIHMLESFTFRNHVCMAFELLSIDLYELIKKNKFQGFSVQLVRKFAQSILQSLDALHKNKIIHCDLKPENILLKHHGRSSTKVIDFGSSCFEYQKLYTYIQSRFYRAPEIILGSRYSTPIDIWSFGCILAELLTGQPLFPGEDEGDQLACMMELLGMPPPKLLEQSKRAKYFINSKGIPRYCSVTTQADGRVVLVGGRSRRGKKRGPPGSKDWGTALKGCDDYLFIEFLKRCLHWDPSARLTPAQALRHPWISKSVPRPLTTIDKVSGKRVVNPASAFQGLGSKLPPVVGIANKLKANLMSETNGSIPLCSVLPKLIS
# [2] = target: T2, DYRK2 protein (Homo sapiens, UniProt Q92630); experiment: Microscale thermophoresis binding assay; settings: for Fnorm: triplicates
# T2 construct: 6xHis (N, cleaved yes); TEV protease cleavage site (N, cleaved yes); made in house; host or cells: E. coli BL21 (DE3)
# T2 sequence (Q92630 72-479 isoform Q92630-2): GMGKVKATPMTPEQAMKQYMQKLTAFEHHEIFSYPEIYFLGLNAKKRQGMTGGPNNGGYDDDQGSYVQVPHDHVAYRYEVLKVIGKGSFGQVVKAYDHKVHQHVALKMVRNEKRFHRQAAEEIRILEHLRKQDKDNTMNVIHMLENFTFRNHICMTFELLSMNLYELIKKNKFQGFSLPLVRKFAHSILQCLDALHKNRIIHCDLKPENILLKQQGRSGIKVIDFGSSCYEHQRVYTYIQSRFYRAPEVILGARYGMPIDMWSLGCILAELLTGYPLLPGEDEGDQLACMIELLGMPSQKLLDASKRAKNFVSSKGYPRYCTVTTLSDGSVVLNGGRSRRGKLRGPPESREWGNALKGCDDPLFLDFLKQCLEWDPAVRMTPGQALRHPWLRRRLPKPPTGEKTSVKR
# [3] = tested on: ICR mice; experiment: Acute toxicity study; assay type: in vivo
# [4] = ICR mice, single oral dose 2500, 5000, 10,000 mg/kg, 14 days
compound,measurement,setting,value
CCN1CCN(C(=O)c2ccc(Nc3ncc(F)c(-c4ccc5nc(N(C)C)sc5c4)n3)nc2)CC1 [YK-2-69],IC50,[1],> 1000 nM
same,% Inhibition DYRK3,"[1]; 0.000762079 µM, duplicates",-8.00% and -1.03%
same,% Inhibition DYRK3,"[1]; 0.00228624 µM, duplicates",-10.03% and -2.95%
same,% Inhibition DYRK3,"[1]; 0.00685871 µM, duplicates",-8.21% and -7.66%
same,% Inhibition DYRK3,"[1]; 0.0205761 µM, duplicates",-2.65% and -5.02%
same,% Inhibition DYRK3,"[1]; 0.0617284 µM, duplicates",11.61%
same,inhibition at 0.0617284 µM,"[1]; 0.0617284 µM, duplicates",6.58%
same,% Inhibition DYRK3,"[1]; 0.185185 µM, duplicates",29.90%
same,inhibition at 0.185185 µM,"[1]; 0.185185 µM, duplicates",28.2%
same,% Inhibition DYRK3,"[1]; 0.555556 µM, duplicates",51.81%
same,inhibition at 0.555556 µM,"[1]; 0.555556 µM, duplicates",49.4%
same,% Inhibition DYRK3,"[1]; 1.66667 µM, duplicates",53.48%
same,% Inhibition DYRK3,"[1]; 5 µM, duplicates",56.27%
same,inhibition at 5 µM,"[1]; 5 µM, duplicates",56.1%
same,inhibition at 1.66667 µM,"[1]; read-out: % Inhibition DYRK3, 1.66667 µM, duplicates",50.8%
same,selectivity over DYRK3,[1]; vs DYRK2,more than 100 fold
same,Kd,[2],92 nM
same,Fnorm,[2]; Ligand Concentration 1.52588e-9 M,967.581 ‰ and 966.546 ‰ and 966.864 ‰
same,Fnorm,[2]; Ligand Concentration 3.05176e-9 M,966.58 ‰ and 965.007 ‰ and 967.223 ‰
same,Fnorm,[2]; Ligand Concentration 6.10352e-9 M,966.992 ‰ and 966.91 ‰ and 966.101 ‰
same,Fnorm,[2]; Ligand Concentration 1.2207e-8 M,967.371 ‰ and 966.328 ‰ and 967.725 ‰
same,Fnorm,[2]; Ligand Concentration 2.44141e-8 M,967.449 ‰ and 966.053 ‰ and 966.951 ‰
same,Fnorm,[2]; Ligand Concentration 4.88281e-8 M,966.087 ‰ and 966.251 ‰ and 967.971 ‰
same,Fnorm,[2]; Ligand Concentration 9.76563e-8 M,964.723 ‰ and 963.783 ‰ and 964.77 ‰
same,Fnorm,[2]; Ligand Concentration 1.95313e-7 M,965.362 ‰ and 964.006 ‰ and 962.948 ‰
same,Fnorm,[2]; Ligand Concentration 3.90625e-7 M,961.623 ‰ and 962.98 ‰ and 964.971 ‰
same,Fnorm,[2]; Ligand Concentration 7.8125e-7 M,963.524 ‰ and 964.437 ‰ and 962.941 ‰
same,Fnorm,[2]; Ligand Concentration 1.5625e-6 M,963.3 ‰ and 963.031 ‰ and 962.056 ‰
same,Fnorm,[2]; Ligand Concentration 3.125e-6 M,962.439 ‰ and 962.002 ‰ and 962.785 ‰
same,Fnorm,[2]; Ligand Concentration 6.25e-6 M,962.791 ‰ and 963.606 ‰ and 963.319 ‰
same,Fnorm,[2]; Ligand Concentration 1.25e-5 M,961.109 ‰ and 965.797 ‰ and 962.38 ‰
same,Fnorm,[2]; Ligand Concentration 2.5e-5 M,962.063 ‰ and 963.029 ‰ and 959.958 ‰
same,Fnorm,[2]; Ligand Concentration 5e-5 M,962.013 ‰ and 961.244 ‰ and 962.047 ‰
same,"Figure S9b Heart (organ weight, individual mice)",[3]; 2500 mg/kg,0.094 and 0.137 and 0.125 and 0.146 and 0.118 and 0.152 and 0.105 and 0.097 and 0.092 and 0.115
same,"Figure S9b Kidney (organ weight, individual mice)",[3]; 2500 mg/kg,0.384 and 0.403 and 0.421 and 0.413 and 0.636 and 0.576 and 0.731 and 0.682 and 0.613
same,"Figure S9b Liver (organ weight, individual mice)",[3]; 2500 mg/kg,1.351 and 1.216 and 1.284 and 1.094 and 1.159 and 1.384 and 1.751 and 1.369 and 1.52 and 1.491
same,"Figure S9b Lung (organ weight, individual mice)",[3]; 2500 mg/kg,0.316 and 0.435 and 0.421 and 0.358 and 0.299 and 0.367 and 0.294 and 0.341 and 0.276 and 0.336
same,"Figure S9b Spleen (organ weight, individual mice)",[3]; 2500 mg/kg,0.176 and 0.186 and 0.205 and 0.201 and 0.214 and 0.253 and 0.196 and 0.221 and 0.206 and 0.257
same,Figure S9a body weight of individual mice,"[3]; 2500 mg/kg, Day 0",19.9 and 20.5 and 20.1 (2×) and 20 and 19.6 and 19.8 and 20.3 and 20.6 and 21.1
same,Figure S9a body weight of individual mice,"[3]; 2500 mg/kg, Day 2",20.2 (2×) and 20.8 and 20.3 (2×) and 20.4 and 19.8 and 20.6 and 20.9 and 21.5
same,Figure S9a body weight of individual mice,"[3]; 2500 mg/kg, Day 4",20.8 and 21.3 (2×) and 20.5 and 20.6 (2×) and 20.1 and 20.4 and 21.1 and 21.8
same,Figure S9a body weight of individual mice,"[3]; 2500 mg/kg, Day 6",21.3 and 21.7 and 20.6 and 20.8 and 20.2 and 20.7 and 21.5 and 21.9 and 22.2 and 20.9
same,Figure S9a body weight of individual mice,"[3]; 2500 mg/kg, Day 8",22.3 and 22.5 and 20.7 and 21.1 and 20.3 and 21 and 21.8 and 22.2 and 22.6 and 21.5
same,Figure S9a body weight of individual mice,"[3]; 2500 mg/kg, Day 10",22.9 and 23.2 and 20.9 and 21.4 and 20.5 and 21.3 and 22.2 and 22.5 and 23.4 and 21.9
same,Figure S9a body weight of individual mice,"[3]; 2500 mg/kg, Day 12",23.5 and 23.9 and 21.2 and 21.7 and 20.6 and 21.6 and 22.4 (2×) and 22.9 and 23.8
same,Figure S9a body weight of individual mice,"[3]; 2500 mg/kg, Day 14",24.2 and 24.5 and 21.4 and 22 and 20.9 and 21.8 and 22.9 (2×) and 23.4 and 24.3
same,"Figure S9b Heart (organ weight, individual mice)",[3]; 5000 mg/kg,0.126 and 0.135 and 0.116 and 0.143 and 0.138 and 0.106 and 0.112 and 0.096 and 0.094
same,"Figure S9b Kidney (organ weight, individual mice)",[3]; 5000 mg/kg,0.369 and 0.416 and 0.389 and 0.444 and 0.502 and 0.384 and 0.569 and 0.612 and 0.656 and 0.715
same,"Figure S9b Liver (organ weight, individual mice)",[3]; 5000 mg/kg,1.316 and 1.128 and 1.421 and 1.266 and 1.156 and 1.841 and 1.669 and 1.581 and 1.384 and 1.492
same,"Figure S9b Lung (organ weight, individual mice)",[3]; 5000 mg/kg,0.401 and 0.386 and 0.456 and 0.512 and 0.379 and 0.452 and 0.253 and 0.302 and 0.281 and 0.317
same,"Figure S9b Spleen (organ weight, individual mice)",[3]; 5000 mg/kg,0.2 and 0.186 and 0.199 and 0.214 and 0.231 and 0.25 and 0.241 and 0.267
same,Figure S9a body weight of individual mice,"[3]; 5000 mg/kg, Day 0",21.4 and 20.5 (3×) and 19.7 and 20.2 and 19.6 and 19.9 and 20.3 and 21.1
same,Figure S9a body weight of individual mice,"[3]; 5000 mg/kg, Day 2",21.7 and 20.9 and 19.9 and 20.4 and 19.6 and 20.3 and 20.7 and 20.6 and 21.5 and 20.8
same,"Figure S9b Heart (organ weight, individual mice)",[3]; 10000 mg/kg,0.115 and 0.099 and 0.142 and 0.128 and 0.122 and 0.129 and 0.089 and 0.096 and 0.124 and 0.106
same,"Figure S9b Kidney (organ weight, individual mice)",[3]; 10000 mg/kg,0.412 and 0.389 and 0.476 and 0.423 and 0.403 and 0.621 and 0.586 and 0.639 and 0.7 and 0.641
same,"Figure S9b Liver (organ weight, individual mice)",[3]; 10000 mg/kg,1.352 and 1.294 and 1.186 and 1.416 and 1.222 and 1.613 and 1.358 and 1.429 and 1.61 and 1.389
same,"Figure S9b Lung (organ weight, individual mice)",[3]; 10000 mg/kg,0.418 and 0.361 and 0.395 and 0.475 and 0.486 and 0.369 and 0.384 and 0.416 and 0.336 and 0.333
same,"Figure S9b Spleen (organ weight, individual mice)",[3]; 10000 mg/kg,0.181 and 0.194 and 0.176 and 0.189 and 0.201 and 0.235 and 0.214 and 0.226 and 0.257
same,maximal tolerable dose,"[3]; ICR mice, single oral dose","more than 10,000 mg/kg"
same,abnormality and death,[3]; [4],no mice died; also recorded: No abnormality and death were observed
same,body weight and main organs vs control (in words),[3]; [4],no difference was detected
